Results published in patent US20080255121A1, “Combination Drug for Treating Autoimmune Disease” (DAINIPPON SUMITOMO PHARMA CO., LTD., priority 2004, published 2008).
Values joined by “and” are separate entries in the source; they are usually repeats but may differ in a detail not shown here. Identical values can stand only once.

Columns and labels:
[1] = tested on: experimental allergic encephalomyelitis mice; assay: Experimental allergic encephalomyelitis, KN-93; format: in vivo, mouse
Description: The efficacy evaluation of KN-93 was performed with the experimental allergic encephalomyelitis mice as an animal model of multiple sclerosis. The experimental allergic encephalomyelitis was caused following the method of Bradley et al. (J. Clinical Investigation, 107: 995-1006, 2001). That is, 150 μg of PLP partial peptide (PLP139-151: NH2—[…]—COOH, SEQ ID NO 12) mixed in a Freund complete adjuvant was injected subcutaneously to a seven-week old female SJL/J mouse (purchased from Charles River Laboratories Japan) at the rear back. The severity of the condition was indicated as a score (disease score) according to the following criteria.
(§1) 0.5: Slight paralysis of tail
2: Light paralysis of hind leg
3: Medium to intense paralysis of hind leg or light forelimb paralysis
(§2) 4: Complete paralysis of hind paw or medium to intense paralysis of forelimb
(§3) 5: Paralysis of four limbs or toward death period
KN-93 was suspended in 0.5% methylcellulose solution (0.1 mg/ml) and 0.1 ml per 10 g mouse weight was subcutaneously administered. In a control group, only 0.5% methylcellulose solution was subcutaneously administered. The administration was started on the 7 days after sensitization and carried out once a day for consecutive 24 days.

[2] = tested on: collagen-induced arthritis mouse; assay: Collagen-induced arthritis in mice; format: in vivo
Description: Efficacy evaluation of Compound (I) was performed using a collagen-induced arthritis in mice as an animal model of rheumatoid arthritis. The collagen-induced arthritis was caused following an ordinary method. That is, 0.1 ml of emulsion was injected to a mouse (DBA/1J, male, Charles River Laboratories Japan) at the base of the tail under etherization as primary immunization. The emulsion was prepared by mixing the same volume of a bovine type II collagen solution (2 mg/ml, Collagen Kenshukai) and Freund Complete Adjuvant (Difco). 0.1 ml of emulsion of the same composition was injected at the base of the tail as booster immunization after three weeks and arthritis was caused. The severity of arthritis was indicated as a score according to the following criteria.
1: Swelling at two or less joints
2: Swelling at three or more joints/Slight redding and edema at limbs
3: Swelling at three or more joints/Moderate redding and edema at limbs
4: Severe redding and edema at limbs/Ankylosis
Evaluation is performed for each limb with 0 to 4 points and therefore the possible maximum score in one individual is 16.
Compound (I) and prednisolone (positive control) were suspended in 0.5% methylcellulose solution and 0.1 ml per 10 g mouse weight was orally administered. In a control group, only 0.5% methylcellulose solution was orally administered. The administration was started with the primary immunization and carried out once a day for consecutive 35 days.

[3] = tested on: experimental allergic encephalomyelitis mice; assay: Experimental allergic encephalomyelitis, Compound (I); format: in vivo
Description: The severity of the condition was indicated as a score (disease score) according to the following criteria.
as §1
2: Light paralysis of hind paw
3: Medium to intense paralysis of hind paw or light forelimb paralysis
as §2, §3
In the prednisolone administered group as a positive control, prednisolone was suspended in 0.5% methylcellulose solution to prepare a liquid of 0.3 mg/ml for administration and 0.1 ml per 10 g mouse weight was orally administered. In a control group, only 0.5% methylcellulose solution was […] administered. The administration was started on the sensitization day and carried out once a day for consecutive 40 days.

[4] = tested on: adjuvant-induced arthritis rats; assay: Combination effect on adjuvant-induced arthritis (Example 19); format: in vivo, rat
Description: Combination effect for rat adjuvant-induced arthritis was examined in the same manner as in Example 17.
The volume of the left hind paw was measured by water replacement method just before the administration and after the last administration, and AUC (the area under the curve formed by plotting the difference of the value at the time of grouping from the value of each time point during the administration period against the time) of the increased volume of the left hind paw was determined. Joint destruction of the right hind paw (injected paw) and the left hind paw (non-injection paw) can be measured by X-ray and this can be also used as the index to evaluate the combination effect.

[5] = tested on: adjuvant-induced arthritis rats; assay: Combination effect on adjuvant-induced arthritis, joint destruction score by soft X-ray (Example 20); format: in vivo, rat
Description: Combination effect for adjuvant-induced arthritic rats was examined in the same manner as in Example 17.
Euthanasia was carried out for all the rats by aspiration of high concentration carbon dioxide after the last administration. Both the hind paws were cut off at the middle point of […]. Both the hind paws were fixed with 10% neutral buffered formalin liquid. […] The degree of joint destruction was recorded with a score. Observed sites were three points of the tibia, calcaneum and tarsal bone, and the possible maximum score was 12.
1: Minimum destruction of joints and bones and new formation of cartilages
2: Mild destruction of joints and bones and new formation and light ossification of cartilages
3: Moderate destruction of joints and bones and ossification
4: Severe destruction and deformation of joints and bones and intense ossification

[6] = 5 mg/kg oral once a day 35 days
[7] = Dose 20 mg/kg oral once a day 40 days
[8] = Dose 40 mg/kg oral once a day 40 days

SMILES	condition (disease score) ([1]; 1 mg/kg subcutaneous once a day 24 days from 7 days after sensitization, FIG. 12)	death ([1]; 1 mg/kg subcutaneous once a day 24 days, control 7 of 10)	p, arthritis onset ratio, Fischer's direct probability method with Bonferroni's correction [2, 6]	p, arthritis score, Shirley-Williams multiple comparison test [2, 6]	onset of arthritis ([2]; 5 to 80 mg/kg oral once a day 35 days, FIG. 10)	degree of arthritis ([2]; 5 to 80 mg/kg oral once a day 35 days, FIG. 11)	disease score ([3]; 20, 40, 80 mg/kg oral once a day 40 days, FIG. 13)	Death Rate [3, 7]	Onset Rate [3, 7]	Death Rate [3, 8]	Onset Rate [3, 8]	Onset Rate ([3]; Dose 80 mg/kg oral once a day 40 days)	Death Rate ([3]; Dose 80 mg/kg oral once a day 40 days, 80 mg/kg)	increased volume and onset ratio of left hind paw ([4]; only Compound (I) 20 mg/kg oral once a day 17 days)	increased volume and onset ratio of left hind paw ([4]; only Compound (I) 40 mg/kg and 80 mg/kg oral once a day 17 days)	joint destruction score of the left hind paw, representative individual which showed an average score in the group ([5]; Compound (I) 40 mg/kg and/or methotrexate 0.06 mg/kg, control score 3, maximum 12)	joint destruction score of the right hind paw, representative individual which showed an average score in the group ([5]; Compound (I) 40 mg/kg and/or methotrexate 0.06 mg/kg, control score 10, maximum 12)	joint destruction of right and left hind paws ([5]; Compound (I) 20, 40, 80 mg/kg in combination with methotrexate 0.06 mg/kg, 17 days)	joint destruction of right and left hind paws ([5]; only Compound (I) 20, 40, 80 mg/kg oral once a day 17 days)
COc1ccc(S(=O)(=O)N(CCO)c2ccccc2CN(C)C/C=C/c2ccc(Cl)cc2)cc1 [KN-93, N-(2-[N-[4-chlorocinnamyl]-N-methylaminomethyl]phenyl)-N-(2-hydroxyethyl)-4-methoxybenzenesulfonamide, reference compound]	much lighter as compared with the control group	2 of 10	–	–	–	–	–	–	–	–	–	–	–	–	–	–	–	–	–
C[C@@H](c1ccc(-c2ccccc2)c(F)c1)c1cc(/N=C(/N)N2CCOCC2)on1 [Compound (I), 3-[(1S)-1-(2-fluorobiphenyl-4-yl)ethyl]-5-{[amino(morpholin-4-yl)methylene]amino}isoxazole]	–	–	< 0.05	< 0.05	dose-dependently suppressed	slight	suppressed the disease score at any dose	0/10	8/10	0/10	7/10	8/10	1 of 10 and 1/10	edema suppressing effect	onset suppressing effect and edema suppressing effect	1	5	dose-dependently and conspicuously enhanced joint destruction suppressing effect of methotrexate	dose-dependently showed joint destruction suppressing effect
